Where “and” joins values, the source holds several entries; their conditions need not be identical. Equal entries are not always repeated. Marks after values point to notes of the source that are not given here.
Legend:
Ascaris-sensitized sheep [1] = assay: Antigen-induced specific lung resistance (baseline, peak EAR, peak LAR), Example 3; assay type: in vivo; conditions: for EAR (peak, largest specific lung resistance 0–4 h) / LAR (peak, largest specific lung resistance 5–8 h): mean ± SE, n = 3 sheep
Description: All procedures were approved by the Mount Sinai Medical Center Animal Research Committee, which is responsible for assuring the humane care and use of experimental animals. […] During the chronic treatment trail, venous blood samples were obtained from the external jugular vein for the determination of plasma compound concentrations. Samples were obtained as baseline (pre-dosing), and, then, before dosing on days 8, 15, 22, 29 and after dosing had stopped on day 43. Measurement of Airway Mechanics: The unsedated sheep were restrained in a cart in the prone position with their heads immobilized. After topical anesthesia of the nasal passages with 2%-lidocaine solution, a balloon catheter was advanced through one nostril into the lower esophagus. The animals were […] with a cuffed endotracheal tube through the other nostril using a flexible fiberoptic bronchoscope as a guide. (The cuff of the endotracheal tube was inflated only for the measurement of airway mechanics and during aerosol challenges to prevent undue discomfort. This procedure has no-effect on airway mechanics). Pleural pressure was estimated with the esophageal balloon catheter (filled with one ml of air) which was positioned 5–10 cm from the gastroesophageal junction. In this position, the end expiratory pleural pressure ranged between -2 and -5 cm H2O. Once the balloon was placed, it was secured so that it remained in position for the duration of the experiment. Lateral pressure in the trachea was measured with a sidehole catheter (inner dimension, 2.5 mm) advanced through and positioned distal to the tip of the endotracheal tube. Transpulmonary pressure, the difference between tracheal and pleural pressure, was measured with a differential pressure transducer catheter system. For the measurement of pulmonary resistance (RL), the proximal end of the endotracheal tube was connected to a pneumotachograph. The signals of flow and transpulmonary pressure were recorded on a n oscilloscope recorder which was linked to a computer for on-line calculation of RL from transpulmonary pressure, respiratory volume (obtained by digital integration) and flow. Analysis of 5–10 breaths were used for the determination of RL. Immediately after the measurements of RL, thoracic gas volume (Vtg) was measured in a constant volume body plethysmograph to obtain specific lung resistance (SRL=RL·Vtg) in cm H2O·sec^−1. Aerosol Delivery Systems: Aerosols of Ascaris suum extract (diluted 20:1 with phosphate buffered saline; 82,000 PNU/ml) were generated using a disposable medical nebulizer (Raindrop^R, Puritan Bennett), which produces an aerosol with a mass median aerodynamic diameter of 3.2 μm (geometric standard deviation, 1.9) as determined by a 7 stage Andersen cascade impactor. The output from the nebulizer was directed into a plastic T-piece, one end of which was connected to the inspiratory port of a Harvard respirator. To better control aerosol delivery, a dosimeter consisting of a solenoid valve and a source of compressed air (20 psi) was activated at the beginning of the inspiratory cycle of the Harvard respirator system for 1 second. The aerosol was delivered at a tidal volume of 500 ml and a rate of 20 breaths per minute for 20 minutes. Each sheep was challenged with an equivalent dose of antigen (400 breaths) in the control and drug trials. Carbachol aerosols were also generated with this same nebulizer system. The same basic protocol was used for all studies in Example 3. This basic protocol consisted of first obtaining baseline dose response curves to aerosol carbachol 1–3 days prior to antigen challenge. Then, on the day of antigen challenge, values of specific lung resistance (SRL) were measured at baseline and, then, 30 min after drug or vehicle (0.9% saline) treatment. The animals were, then, challenged with Ascaris suum antigen and SRL was remeasured immediately after challenge, hourly from 1–6 h after challenge and on the half-hour from 6 ½–8 h after challenge. […]

Ascaris-sensitized sheep [2] = assay: Airway responsiveness to inhaled carbachol (PC400), Examples 1-2; assay type: in vivo; conditions: for ORC #2 (24 P-Ag.) (carbachol reactivity, PC 400) / ORC #1 BSLN. (carbachol reactivity, PC 400): Example 2, aerosol 40 mg b.i.d. (2 mg/kg/day); for ORC #2 (24 P-Ag.) (carbachol reactivity, PC 400): 24 hour post-antigen challenge; for ORC #1 BSLN. (carbachol reactivity, PC 400): baseline
Procedure: Dose Response Curves to Inhaled Carbachol: For the carbachol dose response curves, measurements of SRL were repeated immediately after inhalation of buffer and after each administration of 10 breaths of increasing concentrations of carbachol solution (0.25%, 0.5%, 1.0%, 2.0% and 4.0% w/v). To assess airway responsiveness, the cumulative carbachol dose in breath units (BU) that increased SRL 400% over the post-buffer value (i.e. PC400) was calculated from the dose response curve. One breath unit was defined as one breath of a 1% w/v carbachol solution.
At 3 to 4 days before treatment was begun, baseline airway responsiveness, to aerosol carbachol (i.e., PC400) was determined and a baseline bronchial biopsy performed. […] The animals were treated two times a day for 3 days and then, on the fourth day, at 0.5 hours before antigen challenge and again at 4 hours after challenge. On the antigen-challenge day, SRL was measured and the animals were than treated with HCQ designated compound. SRL was remeasured 0.5 h after treatment (just before challenge) and the animals were then challenged with antigen. SRL was then remeasured immediately after.
On the fourth day, they received an additional treatment one-half hour prior to antigen challenge.

IL-4 = conditions: Seggev J Immunol 150:62A; cited from earlier work
[3] = No Treatment 14d after stopping aerosol 2 mg/kg/d x 28 d
[4] = No Treatment 28d after stopping aerosol 2 mg/kg/d x 28 d
[5] = aerosol 0.2 mg/kg once a day x 4 d
[6] = aerosol 0.6 mg/kg once a day x 4 d
[7] = aerosol 1 mg/kg twice a day for 4 days
[8] = aerosol 1 mg/kg twice a day x 4 d
[9] = aerosol 2 mg/kg once a day for 4 days
[10] = aerosol 2 mg/kg once a day x 4 d
[11] = aerosol 2 mg/kg once a day x 14 d
[12] = aerosol 2 mg/kg once a day x 28 d
[13] = chronic treatment, aerosol 2 mg/kg once a day for up to 4 weeks
[14] = dose response, aerosol 0.2, 0.6 and 2 mg/kg once a day for 4 days
[15] = p.o. 1 mg/kg twice a day for 4 days

With `CCN(CCO)CCCC(C)Nc1ccnc2cc(Cl)ccc12` (stereo not drawn) [HCQ, hydroxychloroquine] the “effect on LAR and AHR after stopping treatment” value (Ascaris-sensitized sheep [1]; 2 weeks after stopping 4 weeks aerosol 2 mg/kg once a day) was “carryover effect”, the “response to allergen after stopping treatment” value (Ascaris-sensitized sheep [1]; 2 weeks after stopping aerosol 1 mg/kg twice a day for 4 days) was “responded normally” and the “response to allergen after stopping treatment” value (Ascaris-sensitized sheep [1]; 2 weeks after stopping aerosol 2 mg/kg once a day for 4 days) was “responded normally”. For the same compound, the “animals' responses after stopping treatment” value (Ascaris-sensitized sheep [1]; 4 weeks after stopping 4 weeks aerosol 2 mg/kg once a day) was “returned to normal”, the “EAR (peak, largest specific lung resistance 0–4 h)” value (Ascaris-sensitized sheep [1]; [3]) was 4.17 ± 1.70 cmH2O.sec^−1 and the “LAR (peak, largest specific lung resistance 5–8 h)” value (Ascaris-sensitized sheep [1]; [3]) was 1.69 ± 0.21 cmH2O.sec^−1. For the same compound, the “EAR (peak, largest specific lung resistance 0–4 h)” value (Ascaris-sensitized sheep [1]; [4]) was 4.35 ± 0.74 cmH2O.sec^−1, the “LAR (peak, largest specific lung resistance 5–8 h)” value (Ascaris-sensitized sheep [1]; [4]) was 2.69 ± 0.26^h cmH2O.sec^−1 and the “EAR (peak, largest specific lung resistance 0–4 h)” value (Ascaris-sensitized sheep [1]; [5]) was 3.95 ± 0.47 cmH2O.sec^−1. The “LAR (peak, largest specific lung resistance 5–8 h)” value (Ascaris-sensitized sheep [1]; [5]) was 2.22 ± 0.17^h cmH2O.sec^−1, the overall protective effect (Ascaris-sensitized sheep [1]; aerosol 0.6 mg/kg once a day for 4 days) was “significant protective effects” and the “EAR (peak, largest specific lung resistance 0–4 h)” value (Ascaris-sensitized sheep [1]; [6]) was 3.19 ± 0.51 cmH2O.sec^−1. For the same compound, the “LAR (peak, largest specific lung resistance 5–8 h)” value (Ascaris-sensitized sheep [1]; [6]) was 1.30 ± 0.18^f cmH2O.sec^−1, the “effect on early airway response (EAR)” value (Ascaris-sensitized sheep [1]; [7]) was “no effect” and the “effect on late airway response (LAR)” value (Ascaris-sensitized sheep [1]; [7]) was “blocked”. For the same compound, the “EAR (peak, largest specific lung resistance 0–4 h)” value (Ascaris-sensitized sheep [1]; [8]) was 5.57 ± 1.82 cmH2O.sec^−1, the “LAR (peak, largest specific lung resistance 5–8 h)” value (Ascaris-sensitized sheep [1]; [8]) was 1.35 ± 0.15^d,e cmH2O.sec^−1 and the “effect on EAR” value (Ascaris-sensitized sheep [1]; [9]) was “no effect”. The “effect on LAR” value (Ascaris-sensitized sheep [1]; [9]) was “blocked”, the “EAR (peak, largest specific lung resistance 0–4 h)” value (Ascaris-sensitized sheep [1]; [10]) was 3.5 ± 0.73 cmH2O.sec^−1 and 3.53 ± 0.73 cmH2O.sec^−1 and the “LAR (peak, largest specific lung resistance 5–8 h)” value (Ascaris-sensitized sheep [1]; [10]) was 1.34 ± 0.32^d,e cmH2O.sec^−1 and 1.34 ± 0.03^d cmH2O.sec^−1. For the same compound, the “EAR (peak, largest specific lung resistance 0–4 h)” value (Ascaris-sensitized sheep [1]; [11]) was 4.21 ± 1.68 cmH2O.sec^−1, the “LAR (peak, largest specific lung resistance 5–8 h)” value (Ascaris-sensitized sheep [1]; [11]) was 0.78 ± 0.39^f cmH2O.sec^−1 and the “EAR (peak, largest specific lung resistance 0–4 h)” value (Ascaris-sensitized sheep [1]; [12]) was 4.21 ± 1.16 cmH2O.sec^−1. The “LAR (peak, largest specific lung resistance 5–8 h)” value (Ascaris-sensitized sheep [1]; [12]) was 1.22 ± 0.08^d cmH2O.sec^−1, the “effect on EAR” value (Ascaris-sensitized sheep [1]; [13]) was “no effect” and the “effect on LAR” value (Ascaris-sensitized sheep [1]; [13]) was “block”. For the same compound, the “effect on EAR” value (Ascaris-sensitized sheep [1]; [14]) was “no effect”, the “effect on LAR” value (Ascaris-sensitized sheep [1]; [14]) was “blocked” and the “effect on antigen-induced EAR” value (Ascaris-sensitized sheep [1]; [15]) was “did not protect”. The “effect on antigen-induced LAR” value (Ascaris-sensitized sheep [1]; [15]) was “did not protect”, the “EAR (peak, largest specific lung resistance 0–4 h)” value (Ascaris-sensitized sheep [1]; p.o. 1 mg/kg twice a day x 4 d) was 4.64 ± 0.55 cmH2O.sec^−1 and the “LAR (peak, largest specific lung resistance 5–8 h)” value (Ascaris-sensitized sheep [1]; p.o. 1 mg/kg twice a day x 4 d) was 2.27 ± 0.10 cmH2O.sec^−1. For the same compound, the “ORC #2 (24 P-Ag.) (carbachol reactivity, PC 400)” value (Ascaris-sensitized sheep [2]; Mean of 2 sheep) was 15.82 breath units, the “ORC #2 (24 P-Ag.) (carbachol reactivity, PC 400)” value (Ascaris-sensitized sheep [2]; individual sheep) was 15.86 breath units and 15.77 breath units and the “ORC #1 BSLN. (carbachol reactivity, PC 400)” value (Ascaris-sensitized sheep [2]; Mean of 2 sheep) was 12.74 breath units. The “ORC #1 BSLN. (carbachol reactivity, PC 400)” value (Ascaris-sensitized sheep [2]; individual sheep) was 10.65 breath units and 14.83 breath units, the “effect on bronchial hyperresponsiveness” value (Ascaris-sensitized sheep [2]; inhaled (nebulized), twenty-four hours later, summary of animal studies) was “continued effect at blocking” and the “effect on the actions of IL-4” value (IL-4) was “blocks”.

— US7183112B2, “Uses for anti-malarial therapeutic agents” (APT Pharmaceuticals, LLC, priority 1999, dated 2007)
